Biological target: T1, rat GABA-A receptor (alpha1, beta2, gamma2L) (Rattus norvegicus, UniProt P18508+P62813+P63138, INS375LLRMFSFK)
T1 construct: expressed in transfected cells; host or cells: Xenopus laevis oocytes (mRNA injection)
Test: Chloride flux (current) in recombinant GABA-A receptors expressed in Xenopus laevis oocytes, voltage clamp
Format: cell-based
Conditions: chloride flux induced by GABA alone
Source text: Studies of Chloride Flux in Recombinant GABA-A Receptors (Alpha1, Beta2, Gama2L) Expressed in Xenopus laevis Oocytes Using Voltage Clamp Methods.
The GABA-A receptor used to test the steroids in the present invention was recombinantly expressed in oocytes of Xenopus laevis. The oocytes have a large capacity to express proteins for the surface membrane from mRNA injected into the oocyte. The receptor contains five proteins of three different types and the mRNA for the receptor subtypes alpha1, beta2, gamma2L were expressed in the present test situation. These subtypes of the GABA-A receptor are the most common in the central nervous system. These GABA-A receptors contain two alpha1 proteins, two beta2 and one gamma protein. After 48 hours of incubation the GABA-A receptors are mounted in the membrane and behave in vitro in a similar way as the receptor in situ. Therefore this model system is considered by persons skilled in art to be a good in vitro test system for GABA-A receptor active drugs. The flux of chloride through the chloride channel is a result of GABA activity on the GABA-A receptor and GABA-A receptor modulators like the 3alpha-hydroxy-5alpha/beta-pregnan-steroids can enhance the effectiveness of GABA. The flux of chloride through the receptor is measured as the current induced by the flux with a voltage clamp technique. Dose response curves of the agonists and antagonists can be developed and the current is dependent of the GABA-A receptor activation obtained after the interaction between different dosages of agonists and antagonists. By normalizing the data against a precise current, in the present study 2 μA, the results from different oocytes can be compared and by normalizing the current change against a specific dose, here 10 μM, the different test substances can be compared. The 3alpha-hydroxy-5alpha-pregnan-20-one induced enhancement of GABA mediated chloride flux was set to 1 and obtained by superfusing the GABA-A receptor expressing oocytes with 3 μM GABA+3 μM 3alpha-hydroxy-5alpha-pregnan-20-one in an in vitro bath. The chloride flux was measured as the current induced by the flux of chloride through the GABA-A receptors. The GABA induced chloride flux was set to 1 and obtained by superfusing the GABA-A receptor expressing oocytes in vitro with 30 μM GABA. The inhibiting effect on 3alpha-hydroxy-5alpha-pregnan-20-one induced enhancement of GABA mediated chloride flux by the tested UC-steroids is compared to the inhibiting effect of the same UC-steroids on GABA activation of the GABA-A receptor. In FIG. 1 are the UC-steroids with low GABA antagonism highlighted with an X while the UC-steroids with partial GABA antagonism are highlighted with a black dot ([…]).
On the figure the result are normalized to the control currents activated by 30 µM GABA or 3 μM GABA+3 μM 3alpha-hydroxy-5alpha-pregnan-20-one. The control current in the absence of steroid antagonists is normalized to […]. Each steroid antagonist is tested at 10 μM. […] The black dot ([…]) highlights the steroid antagonist that inhibits both direct GABA-response (30 μM) and 3alpha-hydroxy-5alpha-pregnan-20-one enhanced GABA response. The labels of the data points are marked with product numbers, whereas the numbering of different substances full name is shown in Table 2 and Table 3.
The studies on 3alpha-hydroxy-5alpha-pregnan-20-one inhibition were made in the presence of 3 μM GABA+3 μM 3alpha-hydroxy-5alpha-pregnan-20-one. […] Number of cells recorded n=3-10. […]

T1 sequence (P62813 28-455, stated change not applied): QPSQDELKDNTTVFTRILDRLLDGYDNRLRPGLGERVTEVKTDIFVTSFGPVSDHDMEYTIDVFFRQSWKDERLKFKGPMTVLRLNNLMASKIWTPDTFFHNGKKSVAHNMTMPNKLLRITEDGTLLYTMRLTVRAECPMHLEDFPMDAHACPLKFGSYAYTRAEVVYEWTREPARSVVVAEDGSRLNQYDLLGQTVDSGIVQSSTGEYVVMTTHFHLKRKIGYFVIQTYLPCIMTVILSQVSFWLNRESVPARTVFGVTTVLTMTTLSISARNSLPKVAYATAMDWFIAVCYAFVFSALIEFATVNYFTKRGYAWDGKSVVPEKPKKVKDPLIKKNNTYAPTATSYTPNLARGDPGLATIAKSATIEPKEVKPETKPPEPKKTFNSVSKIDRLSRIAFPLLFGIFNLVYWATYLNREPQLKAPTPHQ
T1 sequence (P63138 26-474, stated change not applied): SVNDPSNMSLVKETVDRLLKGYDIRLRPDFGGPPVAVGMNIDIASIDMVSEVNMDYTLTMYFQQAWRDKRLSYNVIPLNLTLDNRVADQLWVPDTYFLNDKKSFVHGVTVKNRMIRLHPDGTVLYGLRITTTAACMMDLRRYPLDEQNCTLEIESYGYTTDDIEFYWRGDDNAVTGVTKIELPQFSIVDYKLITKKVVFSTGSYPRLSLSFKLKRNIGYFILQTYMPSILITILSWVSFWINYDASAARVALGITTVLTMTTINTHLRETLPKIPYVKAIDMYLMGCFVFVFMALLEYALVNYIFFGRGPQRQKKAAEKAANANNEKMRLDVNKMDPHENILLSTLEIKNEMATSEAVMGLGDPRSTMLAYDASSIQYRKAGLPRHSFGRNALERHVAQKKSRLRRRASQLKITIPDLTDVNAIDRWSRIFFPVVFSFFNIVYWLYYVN
T1 sequence (P18508 with tags, fused parts or gaps INS375LLRMFSFK): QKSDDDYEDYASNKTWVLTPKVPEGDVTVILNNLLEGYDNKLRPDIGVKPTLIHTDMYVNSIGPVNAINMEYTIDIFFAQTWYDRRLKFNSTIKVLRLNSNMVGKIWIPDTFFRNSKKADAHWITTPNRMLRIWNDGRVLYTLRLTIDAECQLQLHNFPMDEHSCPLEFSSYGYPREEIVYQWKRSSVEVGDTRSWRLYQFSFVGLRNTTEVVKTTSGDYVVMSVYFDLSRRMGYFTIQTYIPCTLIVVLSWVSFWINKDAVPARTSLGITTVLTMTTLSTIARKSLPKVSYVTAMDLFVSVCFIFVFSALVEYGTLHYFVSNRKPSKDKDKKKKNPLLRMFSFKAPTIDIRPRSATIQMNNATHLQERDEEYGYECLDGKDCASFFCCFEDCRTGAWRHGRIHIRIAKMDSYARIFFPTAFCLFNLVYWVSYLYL

| Compound | antagonism against GABA itself (in words) |
| --- | --- |
| CC(O)C1CCC2C3CCC4CC(O)CCC4(C)C3CCC12C (stereo not drawn) [UC1011, 5alpha-PREGNAN-3beta, 20beta-DIOL] | low antagonism against GABA it self |
| CC(=O)O[C@H]1CC[C@@]2(C)[C@@H](CC[C@@H]3[C@@H]2CC[C@]2(C)[C@@H](C(C)=O)CC[C@@H]32)C1 [UC1012, 5alpha-PREGNAN-3beta-OL-20-ONE ACETATE] | partial antagonism against the GABA effect |
| C[C@@H](O)[C@H]1CC[C@H]2[C@@H]3CC[C@@H]4C[C@@H](O)CC[C@]4(C)[C@H]3CC[C@]12C [UC1013, 5beta-PREGNAN-3beta, 20alpha-DIOL] | low antagonism against GABA it self |
| CC(=O)[C@H]1CC[C@H]2[C@@H]3CC[C@@H]4C[C@@H](O)CC[C@]4(C)[C@H]3CC[C@]12C [UC1014, 5beta- PREGNAN-3beta-OL-20-ONE] | partial antagonism against the GABA effect |
| C[C@]12CC[C@H](O)C[C@H]1CC[C@@H]1[C@@H]2CC[C@]2(C)[C@@H](C(=O)CO)CC[C@@H]12 [UC1015, 5beta-PREGNAN-3beta, 21-DIOL-20-ONE] | partial antagonism against the GABA effect |

Reference: US20120142657A1, “GABA-STEROID ANTAGONISTS AND THEIR USE FOR THE TREATMENT OF CNS DISORDERS” (UMECRINE AB, priority 2004, published 2012)
